Experimental data reported in US20220296613A1, “FOOD-INDEPENDENT DOSING OF CV-10155 TO TREAT GABAA DISORDERS” (priority 2021, published 2022).
Several values for one entry are separate records, joined by “and”; a condition that tells them apart may be missing. Identical values can stand only once.

How the values were obtained:
[1] = molecular target: α1β2γ2 GABAA receptors (Homo sapiens, UniProt P14867+P47870); assay: Synchropatch electrophysiology, potentiation of synaptic GABAA receptors; type: cell-based
[2] = molecular target: α4β3δ GABAA receptors (Homo sapiens, UniProt P28472+P48169); assay: Synchropatch electrophysiology, potentiation of extra synaptic GABAA receptors; type: cell-based
[3] = tested on: models of depression, anxiety, seizure, and EEG; assay: Preclinical rodent models of seizure, anxiety, depression and EEG biomarker (overall); type: in vivo
[4] = tested on: sleep states; assay: Sleep states by electroencephalogram (EEG) in rats; type: in vivo
Procedure: The effect of CV-10155 on various sleep states was analyzed in rats. Rats were given various doses of CV-10155, and sleep states were analyzed by electroencephalogram (EEG).
FIG. 17 is a hypnogram showing the percentage of time spent in different sleep states by rats given drug vehicle. Purple bars represent REM sleep; green bars represent non-REM sleep; blue bars represent quiet waking; and red bars represent active waking.
FIG. 18 is a hypnogram showing the percentage of time spent in different sleep states by rats given 1 mg/kg CV-10155. Purple bars represent REM sleep; green bars represent non-REM sleep; blue bars represent quiet waking; and red bars represent active waking.
FIG. 19 is a hypnogram showing the percentage of time spent in different sleep states by rats given 3 mg/kg CV-10155. Purple bars represent REM sleep; green bars represent non-REM sleep; blue bars represent quiet waking; and red bars represent active waking.
FIG. 20 is a hypnogram showing the percentage of time spent in different sleep states by rats given 6 mg/kg CV-10155. Purple bars represent REM sleep; green bars represent non-REM sleep; blue bars represent quiet waking; and red bars represent active waking.
FIG. 21 is a hypnogram showing the percentage of time spent in different sleep states by rats given 10 mg/kg CV-10155. […]

[5] = in vivo; details: beagle, dog, iv, 1 mg/kg
[6] = clinical; details: human, in vivo
[7] = clinical; details: human, in vivo, 60 mg
[8] = Pharmacokinetics of CV-10155 in preclinical rodent studies; details: for AUC(0-inf) / Cmax / Tmax: rodent, in vivo, po
[9] = Pharmacokinetics of CV-10155 solid dosage forms in fed or fasted beagle dogs; details: for AUC(0-t): AUCLast; for MRT inf: MRTInf; for half-life: T½
[10] = 1 mg/kg (minimal effective dose), study including male and female subjects
[11] = 3 mg/kg, study including male and female subjects
[12] = 5 mg/kg, study including only male subjects
[13] = 10 mg/kg, study including male and female subjects
[14] = HPMC-AS formulation, 10 mg PO, fed cohort, individual dogs
[15] = HPMC-AS formulation, 10 mg PO, fed cohort, mean of 4 dogs
[16] = HPMC-AS formulation, 10 mg PO, pentagastrin/fasted cohort, individual dogs
[17] = HPMC-AS formulation, 10 mg PO, pentagastrin/fasted cohort, mean of 4 dogs
[18] = HPMC-AS formulation, 30 mg PO, pentagastrin/fasted cohort, individual dogs
[19] = HPMC-AS formulation, 30 mg PO, pentagastrin/fasted cohort, mean of 4 dogs
[20] = male, beagle, dog, plasma, po, 10 mg, HPMC-AS formulation, 10 mg PO, fed cohort, mean of 4 dogs
[21] = male, beagle, dog, plasma, po, 10 mg, HPMC-AS formulation, 10 mg PO, pentagastrin/fasted cohort, mean of 4 dogs
[22] = male, beagle, dog, plasma, po, 10 mg, HPMC-AS formulation, 10 mg PO, fed cohort, individual dogs
[23] = male, beagle, dog, plasma, po, 30 mg, HPMC-AS formulation, 30 mg PO, pentagastrin/fasted cohort, mean of 4 dogs
[24] = male, beagle, dog, plasma, po, 30 mg, HPMC-AS formulation, 30 mg PO, pentagastrin/fasted cohort, individual dogs

α1β2γ2 GABAA receptors, sequence (P14867 28-456): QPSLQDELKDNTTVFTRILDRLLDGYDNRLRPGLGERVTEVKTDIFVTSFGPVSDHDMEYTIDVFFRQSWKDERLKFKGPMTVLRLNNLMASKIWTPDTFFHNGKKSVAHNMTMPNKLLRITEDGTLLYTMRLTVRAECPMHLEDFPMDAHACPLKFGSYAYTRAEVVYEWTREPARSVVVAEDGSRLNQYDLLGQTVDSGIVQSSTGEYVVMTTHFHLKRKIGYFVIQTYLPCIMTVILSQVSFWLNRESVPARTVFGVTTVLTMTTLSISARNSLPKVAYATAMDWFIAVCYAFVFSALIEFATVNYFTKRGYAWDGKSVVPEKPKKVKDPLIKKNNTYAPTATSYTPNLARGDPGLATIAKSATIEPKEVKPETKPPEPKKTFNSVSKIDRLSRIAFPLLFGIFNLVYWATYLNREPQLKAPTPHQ
α1β2γ2 GABAA receptors, sequence (P47870 25-512 limits assumed): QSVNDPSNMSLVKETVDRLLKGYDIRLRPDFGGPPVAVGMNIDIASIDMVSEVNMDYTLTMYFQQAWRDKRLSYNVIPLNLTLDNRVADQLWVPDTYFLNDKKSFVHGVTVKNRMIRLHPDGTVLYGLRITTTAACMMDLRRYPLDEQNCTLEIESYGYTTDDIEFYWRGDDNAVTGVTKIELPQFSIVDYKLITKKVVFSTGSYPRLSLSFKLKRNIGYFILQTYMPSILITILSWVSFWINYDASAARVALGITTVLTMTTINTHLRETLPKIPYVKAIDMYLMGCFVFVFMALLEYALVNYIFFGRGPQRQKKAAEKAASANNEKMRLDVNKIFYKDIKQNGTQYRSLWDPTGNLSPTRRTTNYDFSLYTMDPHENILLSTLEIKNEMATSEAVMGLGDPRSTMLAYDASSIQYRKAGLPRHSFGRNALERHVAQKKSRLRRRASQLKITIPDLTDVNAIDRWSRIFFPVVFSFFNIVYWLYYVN
α1β2γ2 GABAA receptors, sequence (P18507 40-475 partner): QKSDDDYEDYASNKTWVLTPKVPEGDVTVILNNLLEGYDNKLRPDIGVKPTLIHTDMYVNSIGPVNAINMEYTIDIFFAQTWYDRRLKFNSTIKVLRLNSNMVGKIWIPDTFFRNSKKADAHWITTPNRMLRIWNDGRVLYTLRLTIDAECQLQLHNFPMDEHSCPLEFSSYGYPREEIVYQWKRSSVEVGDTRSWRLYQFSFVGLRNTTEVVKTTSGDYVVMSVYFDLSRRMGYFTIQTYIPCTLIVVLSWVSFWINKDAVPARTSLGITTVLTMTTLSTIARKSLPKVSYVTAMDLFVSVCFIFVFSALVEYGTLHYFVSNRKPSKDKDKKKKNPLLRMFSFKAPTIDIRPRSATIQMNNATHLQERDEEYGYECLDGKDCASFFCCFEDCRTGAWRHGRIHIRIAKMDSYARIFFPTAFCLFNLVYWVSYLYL
α4β3δ GABAA receptors, sequence (P48169 36-554): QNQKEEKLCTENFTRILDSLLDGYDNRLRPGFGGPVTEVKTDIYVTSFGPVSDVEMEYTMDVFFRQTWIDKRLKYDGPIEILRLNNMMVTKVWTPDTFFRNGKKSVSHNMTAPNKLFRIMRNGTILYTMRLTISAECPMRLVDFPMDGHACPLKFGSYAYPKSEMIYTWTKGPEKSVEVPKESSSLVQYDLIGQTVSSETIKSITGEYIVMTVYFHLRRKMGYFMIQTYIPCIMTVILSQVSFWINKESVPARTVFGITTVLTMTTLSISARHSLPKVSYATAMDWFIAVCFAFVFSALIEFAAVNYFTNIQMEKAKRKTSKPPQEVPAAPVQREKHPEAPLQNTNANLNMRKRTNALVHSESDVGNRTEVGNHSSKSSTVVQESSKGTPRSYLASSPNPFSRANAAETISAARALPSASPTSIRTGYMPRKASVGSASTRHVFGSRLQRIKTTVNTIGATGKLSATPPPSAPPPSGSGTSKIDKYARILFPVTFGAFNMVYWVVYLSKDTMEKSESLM
α4β3δ GABAA receptors, sequence (P28472 26-473): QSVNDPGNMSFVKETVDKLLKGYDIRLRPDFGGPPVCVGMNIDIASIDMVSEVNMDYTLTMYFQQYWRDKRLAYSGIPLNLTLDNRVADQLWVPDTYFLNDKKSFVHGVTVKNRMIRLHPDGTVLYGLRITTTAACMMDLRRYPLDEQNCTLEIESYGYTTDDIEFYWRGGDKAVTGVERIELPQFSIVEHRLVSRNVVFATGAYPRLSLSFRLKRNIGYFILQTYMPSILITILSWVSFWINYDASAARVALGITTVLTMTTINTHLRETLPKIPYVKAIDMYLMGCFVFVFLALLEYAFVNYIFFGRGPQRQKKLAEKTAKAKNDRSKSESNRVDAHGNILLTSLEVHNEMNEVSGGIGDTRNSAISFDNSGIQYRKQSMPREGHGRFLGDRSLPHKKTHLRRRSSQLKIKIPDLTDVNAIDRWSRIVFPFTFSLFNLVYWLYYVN
α4β3δ GABAA receptors, sequence (O14764 25-452 partner): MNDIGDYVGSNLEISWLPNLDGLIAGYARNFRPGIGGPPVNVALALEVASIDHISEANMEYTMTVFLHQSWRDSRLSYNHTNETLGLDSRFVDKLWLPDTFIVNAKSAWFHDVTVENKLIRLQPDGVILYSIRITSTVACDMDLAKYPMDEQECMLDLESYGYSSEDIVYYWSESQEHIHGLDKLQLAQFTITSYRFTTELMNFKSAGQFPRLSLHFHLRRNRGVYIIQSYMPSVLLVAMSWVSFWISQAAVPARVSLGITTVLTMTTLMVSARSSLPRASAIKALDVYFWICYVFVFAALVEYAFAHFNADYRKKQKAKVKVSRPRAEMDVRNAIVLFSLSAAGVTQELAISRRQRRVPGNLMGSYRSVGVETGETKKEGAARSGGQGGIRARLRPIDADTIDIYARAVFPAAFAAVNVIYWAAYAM

C[C@@]1(O)CC[C@@]2(C)[C@@H](CC[C@@H]3[C@@H]2CC[C@]2(C)[C@@H](C(=O)Cn4cc(C#N)cn4)CC[C@@H]32)C1 [CV-10155, 1-[2-[(3R,5S,8R,9S,10S,13S,14S,17S)-3-hydroxy-3,10,13-trimethyl-1,2,4,5,6,7,8,9,11,12,14,15,16,17-tetradecahydrocyclopenta[a]phenanthren-17-yl]-2-oxoethyl]pyrazole-4-carbonitrile]
EC50 [1]: 0.207 µM | Emax ([1]; α1β2γ2 Synaptic receptors, Synchropatch electrophysiology, read-out: Emax - efficacy: % of potentiation): 586% | EC50 [2]: 0.165 µM | fold higher efficiency at extra synaptic vs. synaptic channels ([2]; α4β3δ vs α1β2γ2): 3 fold | dose from which robust efficacy was observed ([3]; most rodent models of seizure): ≥ 3 mg/kg | minimal effective dose (MED) ([3]; rodent models of seizure): 1 mg/kg | dose producing an increase in non-REM sleep ([4]; EEG, 1, 3, 6, 10 mg/kg tested): ≥ 3 mg/kg | target engagement (EEG) ([4]; within well-tolerated and efficacious dose ranges): dose-dependent target engagement | dose proportionality of AUC and Cmax (human, in vivo, po): dose-proportional increase | MTD, single ascending dose (SAD) (humans): ETX-155 135 mg SAD MTD | dose-limiting adverse event (humans): Ataxia | effect of food consumption on absorption (humans, oral 30 mg, fed vs fasted): no clinically meaningful effect | adverse events observed (humans, single oral dose, 200 mg): ataxia, tremor and tachycardia | inter-subject variability (CV) of AUC and Cmax (humans, single oral dose, 5-200 mg dose range): ≤ 30% | dose-limiting adverse events (humans, single oral dose, range of 5-135 mg): No dose-limiting adverse events were observed | most common adverse events (humans, single oral dose, mild to moderate, only observed at the highest doses): Dizziness and somnolence | Vd [5]: 1.92 L/kg | clearance [5]: 2.17 mL/min/kg | half-life [5]: 13.9 h | AUC(0-inf) ([6]; 135 mg): 3660 ng·h/mL | Cmax ([6]; 135 mg): 333 ng/mL | Tmax ([6]; 135 mg): 2.83 h | half-life ([6]; 135 mg): 25 h | Tmax ([6]; po): 2 to 4 h | half-life ([6]; po): 24 to 26 h | AUC [7]: 2900 ng·h/mL | Cmax [7]: 253 ng/mL | Tmax [7]: 3 h | half-life [7]: 34.5 h | 1/2 life [8, 10]: 3.66-6.82 | Oral BA [8, 10]: 58.6-92.4 | Oral BA ([8]; 2 mg/kg, study including only male subjects): 47.2 | 1/2 life [8, 11]: 2.84-4.96 | Oral BA [8, 11]: 53-92.3 | 1/2 life [8, 12]: 4.19 | Oral BA [8, 12]: 58.1 | 1/2 life [8, 13]: 3.23-4.80 | Oral BA [8, 13]: 79.7-100 | AUC(0-inf) ([8]; both, 1 mg/kg): 508 to 1300 ng·h/mL | Cmax ([8]; both, 1 mg/kg): 84.4 to 128 ng/mL | Tmax ([8]; both, 1 mg/kg): 1.5 to 2 h | AUC(0-inf) ([8]; both, 3 mg/kg): 1380 to 3900 ng·h/mL | Cmax ([8]; both, 3 mg/kg): 270 to 440 ng/mL | Tmax ([8]; both, 3 mg/kg): 1.25 to 2.5 h | AUC(0-inf) ([8]; both, 10 mg/kg): 6850 to 14700 ng·h/mL | Cmax ([8]; both, 10 mg/kg): 1160 ng/mL | Tmax ([8]; both, 10 mg/kg): 1.25 to 2.25 h | AUC(0-inf) ([8]; male, 2 mg/kg): 1320 ng·h/mL | Cmax ([8]; male, 2 mg/kg): 224 ng/mL | Tmax ([8]; male, 2 mg/kg): 1.7 h | AUC(0-inf) ([8]; male, 5 mg/kg): 2610 ng·h/mL | Cmax ([8]; male, 5 mg/kg): 499 ng/mL | Tmax ([8]; male, 5 mg/kg): 0.83 h | AUCExtr [9, 14]: 23.1% and 21.3% and 22.0% and 23.4% | AUCInf [9, 14]: 5047 ng·h/mL and 2440 ng·h/mL and 2105 ng·h/mL and 3712 ng·h/mL | AUCInf/D [9, 14]: 5602 kg·ng·h/mL/mg and 2929 kg·ng·h/mL/mg and 2273 kg·ng·h/mL/mg and 4084 kg·ng·h/mL/mg | AUCLast [9, 14]: 3882 ng·h/mL and 1919 ng·h/mL and 1641 ng·h/mL and 2845 ng·h/mL | Cmax [9, 14]: 512 ng/mL and 334 ng/mL and 273 ng/mL and 649 ng/mL | F [9, 14]: 71.6% and 38.3% and 29.4% and 52.0% | MRTInf [9, 14]: 14.8 h and 15.0 h and 15.5 h | T½ [9, 14]: 12.5 h and 12.2 h and 15.0 h | AUCExtr [9, 15]: 22.5% | AUCInf/D [9, 15]: 3722 kg·ng·h/mL/mg | F [9, 15]: 47.8% | AUCExtr [9, 16]: 20.4% and 14.1% and 47.1% and 17.9% | AUCInf [9, 16]: 2465 ng·h/mL and 2612 ng·h/mL | AUCInf/D [9, 16]: 2762 kg·ng·h/mL/mg and 2441 kg·ng·h/mL/mg and 3314 kg·ng·h/mL/mg and 2821 kg·ng·h/mL/mg | AUCLast [9, 16]: 2118 ng·h/mL and 1754 ng·h/mL and 2145 ng·h/mL | Cmax [9, 16]: 340 ng/mL and 183 ng/mL and 217 ng/mL | F [9, 16]: 36.5% and 34.8% and 29.1% and 38.5% | MRTInf [9, 16]: 14.8 h and 11.6 h and 33.6 h and 13.6 h | Tmax [9, 16]: 1 h | T½ [9, 16]: 11.1 h and 8.84 h and 25.7 h and 9.66 h | AUCExtr [9, 17]: 24.8% | AUCInf/D [9, 17]: 2834 kg·ng·h/mL/mg | F [9, 17]: 34.7% | AUCExtr [9, 18]: 30.3% and 27.1% and 19.4% and 24.4% | AUCInf [9, 18]: 12588 ng·h/mL and 8620 ng·h/mL and 4072 ng·h/mL and 7783 ng·h/mL | AUCInf/D [9, 18]: 4995 kg·ng·h/mL/mg and 3157 kg·ng·h/mL/mg and 1572 kg·ng·h/mL/mg and 2982 kg·ng·h/mL/mg | AUCLast [9, 18]: 8769 ng·h/mL and 6285 ng·h/mL and 3281 ng·h/mL and 5884 ng·h/mL | Cmax [9, 18]: 1440 ng/mL and 954 ng/mL and 302 ng/mL and 993 ng/mL | F [9, 18]: 57.8% and 38.3% and 21.1% and 37.5% | MRTInf [9, 18]: 18.1 h and 14.4 h and 16.2 h | T½ [9, 18]: 13.6 h and 9.98 h and 12.3 h | AUCExtr [9, 19]: 25.3% | AUCInf/D [9, 19]: 3177 kg·ng·h/mL/mg | F [9, 19]: 38.6% | AUC(0-inf) ([9]; male, beagle, dog, in vivo, po, 10 mg): 3310 ng·h/mL | AUC(0-inf) ([9]; male, beagle, dog, plasma, po, 10 mg, AUCInf, HPMC-AS formulation, 10 mg PO, fed cohort, mean of 4 dogs): 3330 ng·h/mL | AUC(0-inf) ([9]; male, beagle, dog, plasma, po, 10 mg, AUCInf, HPMC-AS formulation, 10 mg PO, pentagastrin/fasted cohort, individual dogs): 2630 ng·h/mL | AUC(0-inf) ([9]; male, beagle, dog, plasma, po, 10 mg, AUCInf, HPMC-AS formulation, 10 mg PO, pentagastrin/fasted cohort, mean of 4 dogs): 2760 ng·h/mL | AUC(0-t) [9, 20]: 2570 ng·h/mL | AUC(0-t) ([9]; male, beagle, dog, plasma, po, 10 mg, HPMC-AS formulation, 10 mg PO, pentagastrin/fasted cohort, individual dogs): 2090 ng·h/mL | AUC(0-t) [9, 21]: 2030 ng·h/mL | Cmax ([9]; male, beagle, dog, plasma, po, 10 mg, Cmax, HPMC-AS formulation, 10 mg PO, fed cohort, mean of 4 dogs): 442 ng/mL | Cmax ([9]; male, beagle, dog, plasma, po, 10 mg, Cmax, HPMC-AS formulation, 10 mg PO, pentagastrin/fasted cohort, individual dogs): 222 ng/mL | Cmax ([9]; male, beagle, dog, plasma, po, 10 mg, Cmax, HPMC-AS formulation, 10 mg PO, pentagastrin/fasted cohort, mean of 4 dogs): 241 ng/mL | MRT inf [9, 22]: 15.7 h | MRT inf [9, 20]: 15.3 h | MRT inf [9, 21]: 18.4 h | Tmax ([9]; male, beagle, dog, plasma, po, 10 mg, Tmax, HPMC-AS formulation, 10 mg PO, fed cohort, mean of 4 dogs): 1.13 h | Tmax ([9]; male, beagle, dog, plasma, po, 10 mg, Tmax, HPMC-AS formulation, 10 mg PO, pentagastrin/fasted cohort, individual dogs): 2 h | Tmax ([9]; male, beagle, dog, plasma, po, 10 mg, Tmax, HPMC-AS formulation, 10 mg PO, pentagastrin/fasted cohort, mean of 4 dogs): 1.5 h | half-life [9, 22]: 12.6 h | half-life [9, 20]: 13.1 h | half-life [9, 21]: 13.8 h | AUC(0-inf) ([9]; male, beagle, dog, plasma, po, 30 mg, AUCInf, HPMC-AS formulation, 30 mg PO, pentagastrin/fasted cohort, mean of 4 dogs): 8270 ng·h/mL | AUC(0-t) [9, 23]: 6060 ng·h/mL | Cmax ([9]; male, beagle, dog, plasma, po, 30 mg, Cmax, HPMC-AS formulation, 30 mg PO, pentagastrin/fasted cohort, mean of 4 dogs): 922 ng/mL | MRT inf [9, 24]: 20 h | MRT inf [9, 23]: 17.2 h | Tmax ([9]; male, beagle, dog, plasma, po, 30 mg, Tmax, HPMC-AS formulation, 30 mg PO, pentagastrin/fasted cohort, mean of 4 dogs): 1 h | half-life [9, 24]: 17.8 h | half-life [9, 23]: 13.4 h
